Experimental data reported in patent US7417156B2, “Orally active, antimalarial, anticancer, artemisinin-derived trioxane dimers” (Johns Hopkins University, priority 2002, dated 2008).
Where “and” joins values, the source holds several entries; their conditions need not be identical. Identical values can stand only once. Like-named read-outs stand apart in the source and are kept apart here.

Legend:
[1] = system: chloroquine-sensitive P. falciparum (NF54); assay: Antimalarial activity in vitro, [3H]hypoxanthine incorporation; format: cell-based
[2] = Stability in air (room temperature; accelerated aging at 60° C.); format: physicochemical
Text: The next step, shown in FIG. 2, in the production of the novel meso trioxane dimer 3 involves the substitution of the acetoxy group from the C-10 acetate 2 product to form the meso trioxane dimer 3 product. Inspiration for this bis-allylation of C-10 acetate 2 was based on the pioneering trioxane mono-allylations of Ziffer (Pu, Y. M.; Ziffer, H., Synthesis and Antimalarial Activities of 12β-Allyldeoxoartemisinin. J. Med. Chem. 1995, 38, 613-616) and O'Neill (O'Neill, et al., J. Med. Chem. 1999, 42, 5487-5493; and O'Neill, P. M., et al., J. Chem. Soc., Perkin Trans. 2001, 1, 2682-2689.) using allylsilane and based also on allylic bis-silane chemistry, see Rychnovsky, S. D., et. al., Tetrahedron Lett. 1999, 40, 41-44. The requisite allylic bis-silane is easily prepared in one step from the corresponding commercial allylic dichloride (Shown in FIG. 2); in the presence of fresh tin tetrachloride, the allylic bis-silane converts acetate 2 on gram scale into meso dimer 3, characterized by ^1H NMR spectroscopy as done before in structurally related trioxanes. This double substitution reaction undoubtedly proceeds sequentially via initial monoallylation, producing an intermediate C-10 allylic silane that then reacts with another molecule of trioxane acetate 2 to form the product dimer 3. […]

[3] = rat liver microsomes; cited from earlier work
malaria parasite = assay: Efficacy Study Blood Schizontocidal Activity; format: in vivo; design: ED90: unit not given here
[4] = system: P. berghei NY malaria parasite; assay: Antimalarial efficacies in vivo in mice
Text: Neither overt toxicity nor behavioral modification was observed due to drug administration in any of these mouse experiments.

male CD-1 mice = assay: Acute toxicity study, single intraperitoneal injection; details: single ip, male CD-1 mice
Experimental: Each compound was dissolved in DMSO (Mallinkrodt Lot No. V18H15) to achieve a concentration of 200 mg/ml, and then 3 parts sesame oil (Spectrum Lot No. M10656) was added to make a working concentration of 50 mg/ml for dose administration. Stability, strength, and uniformity of the test articles in the dose formulations were not determined for this study.
Forty-two CD1 male mice purchased from Charles River Laboratories (Wilmington, Mass.) were used in the study. Mice were quarantined for 3 days prior to initiation of the study.
Mice were weighed and randomized into treatment groups on the day prior to the first dose administration. Due to limitations in the amount of available test materials, fewer mice in 1000 mg/kg groups were treated than specified in the protocol. The numbers of animals intended to be used and actually used with each compound at each dose level are shown in the table below; the only differences are in the high-dose groups.
Surviving animals were sacrificed on Day 8 and blood was collected for clinical pathology evaluations.
Mortality and morbidity were checked twice daily on weekdays and once daily on the weekend, see Table VI. Animals were weighed daily and prior to necropsy.

60 cell line panel = format: cell-based; details: leukemia cell line RPM 1-8226, melanoma cell line SK-MEL-5, renal cancer cell line ACHN
[5] = in vivo; cited from earlier work
P. berghei = details: P. berghei-infected mice; cited from earlier work
[6] = system: Ehrlich ascites tumor (EAT) cells; details: MTT assay; cited from earlier work
[7] = Table I, NF54 strain, read-out: IC50

In the case of `C=C(CC1OC2OC3(C)CCC4C(C)CCC(C1C)C24OO3)CC1OC2OC3(C)CCC4C(C)CCC(C1C)C24OO3` (centres unmarked) [Compound 3, trioxane isobutene dimer], the IC50 ([1]; read-out: IC50) is reported as 24 nM and the “stability in air and light in words” value [2] is reported as “stable in air and light at room temperature for at least six months”.

For `CCO[C@H]1O[C@@H]2O[C@@]3(C)CC[C@H]4[C@H](C)CC[C@@H]([C@H]1C)[C@@]24OO3` [arteether], the conversion into dihydroartemisinin [3] is listed as “rapidly converted”.

For `C[C@H]1[C@H](OC(=O)CCC(=O)[O-])O[C@@H]2O[C@@]3(C)CC[C@H]4[C@H](C)CC[C@@H]1[C@@]24OO3.[Na+]` [Sodium Artesunate, sodium artesunate, reference compound], the ED50 (malaria parasite; Route: IV) was 5 mg/kg, the ED90 (malaria parasite; Route: IV) was 40.0 and the ED50 (malaria parasite; Route: PO) was 6 mg/kg. The ED90 (malaria parasite; Route: PO) was 60.0, the ED50 ([4]; route PO) was 10.0 mg/kg × 4 and 5.5 mg/kg × 4 and the ED90 ([4]; route PO) was 39.0 mg/kg × 4 and 70.0 mg/kg × 4. For the same molecule, the “% Parasite Supression at 10 mg/kg” value ([4]; route PO) was 52.8% and 50.9%, the Mortality (male CD-1 mice; 125 mg/kg) was “No death” and the Mortality (male CD-1 mice; 250 mg/kg) was 1/3 dead. For the same molecule, the Mortality (male CD-1 mice; 500 mg/kg) was 3/3 dead.

With `C[C@@H]1CC[C@H]2[C@@H](C)C(CC3(CC4OC5O[C@]6(C)CC[C@H]7[C@H](C)CC[C@@H]([C@H]4C)C57OO6)CO3)OC3O[C@]4(C)CCC1C32OO4` (some centres unmarked) [Compound 6, bis-trioxane epoxide] the “growth inhibition in words” value (60 cell line panel) was “less inhibitory” and the IC50 [1, 7] was 2.8 nM.

For `C[C@@H]1CC[C@H]2[C@@H](C)C(CC(=O)CC3OC4O[C@]5(C)CC[C@H]6[C@H](C)CC[C@@H]([C@H]3C)C46OO5)OC3O[C@]4(C)CCC1C32OO4` (some centres unmarked) [Compound 7, bis-trioxane ketone], the “growth inhibition in words” value (60 cell line panel) was “less inhibitory”, the IC50 [1] was “below one nM” and the “antimalarial potency in vitro relative to artemisinin” value [1] was 10 times. For the same molecule, the IC50 [1, 7] was 0.91 nM.

For `C[C@H]1[C@@H](O)O[C@@H]2O[C@@]3(C)CC[C@H]4[C@H](C)CC[C@@H]1[C@@]24OO3` [Compound 31, dihydroartemisinin], the half-life in plasma [5] is given as “less than two hours”.

For `CC1=CO[C@@H]2O[C@]3(C)CC[C@H]4[C@H](C)CC[C@@H]1[C@@]24OO3` [III], the activity in words (P. berghei) is given as “inactive”.

In the case of `C[C@@H]1[C@H](OCc2ccc(C(=O)O)cc2)O[C@@H]2O[C@@]3(C)CC[C@@H]4[C@@H](C)CC[C@@H]1[C@]24OO3` [Artelinic Acid, artelinic acid, reference compound], the ED50 ([4]; route IV) is reported as 11.0 mg/kg × 4 and 5.6 mg/kg × 4, the ED90 ([4]; route IV) is reported as 25.0 mg/kg × 4 and 43.0 mg/kg × 4 and the “% Parasite Supression at 10 mg/kg” value ([4]; route IV) is reported as 54.7% and 42.4%.

With `CC1CCC2C(C)C(CC(O)CC3OC4OC5(C)CCC6C(C)CCC(C3C)C46OO5)OC3OC4(C)CCC1C32OO4` (centres unmarked) [Compound 17, bis-trioxane secondary alcohol] the IC50 [1] was “below one nM” and the IC50 [1, 7] was 0.66 nM.

In the case of `C[C@H]1[C@@H](O[C@H]2O[C@@H]3O[C@@]4(C)CC[C@H]5[C@H](C)CC[C@@H]([C@H]2C)[C@@]35OO4)O[C@@H]2O[C@@]3(C)CC[C@H]4[C@H](C)CC[C@@H]1[C@@]24OO3` [II-7, dihydroartemisinin condensation by-product], the SD90 (P. berghei) is listed as 10 mg/kg and the IC50 [6] is listed as 1400 nM.

For `CC1CCC2C(C)C(CC(CC3OC4OC5(C)CCC6C(C)CCC(C3C)C46OO5)OC(=O)c3cc[n+]([O-])cc3)OC3OC4(C)CCC1C32OO4` (centres unmarked) [Compound 24, bis-trioxane secondary alcohol isonicotinate N-oxide], the IC50 [1] was “sub-nanomolar” and the IC50 [1, 7] was 0.42 nM.

Work on `CC1CCC2C(C)C(CC(O)(COCC(=O)O)CC3OC4OC5(C)CCC6C(C)CCC(C3C)C46OO5)OC3OC4(C)CCC1C32OO4` (stereo not drawn) [Compound 21, bis-trioxane β-hydroxy O-acetic acid] yielded an IC50 [1, 7] of 4.4 nM.

For `CC1CCC2C(C)C(CC(O)(CC(=O)O)CC3OC4OC5(C)CCC6C(C)CCC(C3C)C46OO5)OC3OC4(C)CCC1C32OO4` (centres unmarked) [Compound 35, bis-trioxane tertiary alcohol carboxylic acid], the IC50 [1, 7] was 2 nM.
